# Experimental data taken from the supplement of paper PMC10307832.
# Columns and labels:
# Experiment in all cases: relative viability (nuclei count vs DMSO), 5 days (fraction); higher = more cells survive
# Neratinib = compound: CCOc1cc2ncc(C#N)c(Nc3ccc(OCc4ccccn4)c(Cl)c3)c2cc1NC(=O)/C=C/CN(C)C [Neratinib]
# Procedure, shortened: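 MetaXpress counted nuclei in 4× images of lung cancer cell lines that had been fixed, permeabilised and Hoechst-stained in one step. Before that, cells in 1536-well plates were kept overnight at 37 °C, pinned with five √10-spaced library-drug doses on vehicle-anchored plates, and cultured 5 days without medium change. Viability takes treated-well nuclei over vehicle-well nuclei and uses the median across plates. Plates were accepted only at control CV below 25% and at least one doubling.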
# Neratinib + Luminespib = compound: CCOc1cc2ncc(C#N)c(Nc3ccc(OCc4ccccn4)c(Cl)c3)c2cc1NC(=O)/C=C/CN(C)C [Neratinib] + CCNC(=O)c1noc(-c2cc(C(C)C)c(O)cc2O)c1-c1ccc(CN2CCOCC2)cc1 [Luminespib] (partner 0.01 µM)
# Procedure, shortened: (§1)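 Relative viability equals treated-well nuclei counts divided by vehicle-well nuclei counts. Counts came from 4× images of lung cancer cell lines grown in 1536-well plates for 5 days after pin-tool dosing on the day after seeding. Dosing used one drug alone or a fixed anchor-drug dose plus five library-drug doses (not always all listed) in √10 steps, and values are medians of duplicate plates.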
# Neratinib + Foretinib = compound: CCOc1cc2ncc(C#N)c(Nc3ccc(OCc4ccccn4)c(Cl)c3)c2cc1NC(=O)/C=C/CN(C)C [Neratinib] + COc1cc2c(Oc3ccc(NC(=O)C4(C(=O)Nc5ccc(F)cc5)CC4)cc3F)ccnc2cc1OCCCN1CCOCC1 [Foretinib] (partner 0.25 µM)
# Procedure, shortened: as §1
# Neratinib + OSI-027 = compound: CCOc1cc2ncc(C#N)c(Nc3ccc(OCc4ccccn4)c(Cl)c3)c2cc1NC(=O)/C=C/CN(C)C [Neratinib] + COc1cccc2cc(-c3nc([C@H]4CC[C@H](C(=O)O)CC4)n4ncnc(N)c34)[nH]c12 [OSI-027] (partner 0.5 µM)
# Procedure, shortened: as §1
# Neratinib + Tozasertib = compound: CCOc1cc2ncc(C#N)c(Nc3ccc(OCc4ccccn4)c(Cl)c3)c2cc1NC(=O)/C=C/CN(C)C [Neratinib] + Cc1cc(Nc2cc(N3CCN(C)CC3)nc(Sc3ccc(NC(=O)C4CC4)cc3)n2)n[nH]1 [Tozasertib] (partner 0.1 µM)
# Procedure, shortened: as §1
# Neratinib + Dasatinib = compound: CCOc1cc2ncc(C#N)c(Nc3ccc(OCc4ccccn4)c(Cl)c3)c2cc1NC(=O)/C=C/CN(C)C [Neratinib] + Cc1nc(Nc2ncc(C(=O)Nc3c(C)cccc3Cl)s2)cc(N2CCN(CCO)CC2)n1 [Dasatinib] (partner 0.075 µM)
# Procedure, shortened: as §1
# Neratinib + Phenformin = compound: CCOc1cc2ncc(C#N)c(Nc3ccc(OCc4ccccn4)c(Cl)c3)c2cc1NC(=O)/C=C/CN(C)C [Neratinib] + N=C(N)NC(=N)NCCc1ccccc1 [Phenformin] (partner 250 µM)
# Procedure, shortened: as §1
# Neratinib + Trametinib = compound: CCOc1cc2ncc(C#N)c(Nc3ccc(OCc4ccccn4)c(Cl)c3)c2cc1NC(=O)/C=C/CN(C)C [Neratinib] + CC(=O)Nc1cccc(-n2c(=O)n(C3CC3)c(=O)c3c(Nc4ccc(I)cc4F)n(C)c(=O)c(C)c32)c1 [Trametinib] (partner 0.02 µM)
# Procedure, shortened: as §1
# Neratinib + Palbociclib = compound: CCOc1cc2ncc(C#N)c(Nc3ccc(OCc4ccccn4)c(Cl)c3)c2cc1NC(=O)/C=C/CN(C)C [Neratinib] + CC(=O)c1c(C)c2cnc(Nc3ccc(N4CCNCC4)cn3)nc2n(C2CCCC2)c1=O [Palbociclib] (partner 0.5 µM)
# Procedure, shortened: as §1
# Neratinib + AZD7762 = compound: CCOc1cc2ncc(C#N)c(Nc3ccc(OCc4ccccn4)c(Cl)c3)c2cc1NC(=O)/C=C/CN(C)C [Neratinib] + NC(=O)Nc1cc(-c2cccc(F)c2)sc1C(=O)N[C@H]1CCCNC1 [AZD7762] (partner 0.2 µM)
# Procedure, shortened: as §1
# Neratinib + Pemetrexed = compound: CCOc1cc2ncc(C#N)c(Nc3ccc(OCc4ccccn4)c(Cl)c3)c2cc1NC(=O)/C=C/CN(C)C [Neratinib] + Nc1nc2[nH]cc(CCc3ccc(C(=O)N[C@@H](CCC(=O)O)C(=O)O)cc3)c2c(=O)[nH]1 [Pemetrexed] (partner 0.2 µM)
# Procedure, shortened: as §1
# Neratinib + Decitabine = compound: CCOc1cc2ncc(C#N)c(Nc3ccc(OCc4ccccn4)c(Cl)c3)c2cc1NC(=O)/C=C/CN(C)C [Neratinib] + Nc1ncn([C@H]2C[C@H](O)[C@@H](CO)O2)c(=O)n1 [Decitabine] (partner 2 µM)
# Procedure, shortened: as §1
# Neratinib + Vorinostat = compound: CCOc1cc2ncc(C#N)c(Nc3ccc(OCc4ccccn4)c(Cl)c3)c2cc1NC(=O)/C=C/CN(C)C [Neratinib] + O=C(CCCCCCC(=O)Nc1ccccc1)NO [Vorinostat] (partner 1 µM)
# Procedure, shortened: as §1
# Neratinib + Olaparib = compound: CCOc1cc2ncc(C#N)c(Nc3ccc(OCc4ccccn4)c(Cl)c3)c2cc1NC(=O)/C=C/CN(C)C [Neratinib] + O=C(c1cc(Cc2n[nH]c(=O)c3ccccc23)ccc1F)N1CCN(C(=O)C2CC2)CC1 [Olaparib] (partner 8 µM)
# Procedure, shortened: as §1
cell line,measurement,setting,value
NCI-H1623,relative viability,Neratinib; 0.03162 µM,0.903
same,relative viability,Neratinib; 0.1 µM,0.755
same,relative viability,Neratinib; 0.3162 µM,0.333
same,relative viability,Neratinib; 1 µM,0.271
same,relative viability,Neratinib + Luminespib; first compound 0.01 µM,0.663
same,relative viability,Neratinib + Luminespib; first compound 0.03162 µM,0.566
same,relative viability,Neratinib + Luminespib; first compound 0.1 µM,0.401
same,relative viability,Neratinib + Luminespib; first compound 0.3162 µM,0.355
same,relative viability,Neratinib + Luminespib; first compound 1 µM,0.341
same,relative viability,Neratinib + Foretinib; first compound 0.01 µM,0.822
same,relative viability,Neratinib + Foretinib; first compound 0.03162 µM,0.856
same,relative viability,Neratinib + Foretinib; first compound 0.1 µM,0.621
same,relative viability,Neratinib + Foretinib; first compound 0.3162 µM,0.31
same,relative viability,Neratinib + Foretinib; first compound 1 µM,0.241
same,relative viability,Neratinib + OSI-027; first compound 0.01 µM,0.496
same,relative viability,Neratinib + OSI-027; first compound 0.03162 µM,0.376
same,relative viability,Neratinib + OSI-027; first compound 0.1 µM,0.365
same,relative viability,Neratinib + OSI-027; first compound 0.3162 µM,0.213
same,relative viability,Neratinib + OSI-027; first compound 1 µM,0.261
same,relative viability,Neratinib + Tozasertib; first compound 0.01 µM,0.477
same,relative viability,Neratinib + Tozasertib; first compound 0.03162 µM,0.424
same,relative viability,Neratinib + Tozasertib; first compound 0.3162 µM,0.224
same,relative viability,Neratinib + Tozasertib; first compound 1 µM,0.229
same,relative viability,Neratinib + Dasatinib; first compound 0.01 µM,0.578
same,relative viability,Neratinib + Dasatinib; first compound 0.03162 µM,0.538
same,relative viability,Neratinib + Dasatinib; first compound 0.1 µM,0.464
same,relative viability,Neratinib + Dasatinib; first compound 0.3162 µM,0.432
same,relative viability,Neratinib + Dasatinib; first compound 1 µM,0.26
same,relative viability,Neratinib + Phenformin; first compound 0.01 µM,0.598
same,relative viability,Neratinib + Phenformin; first compound 0.03162 µM,0.589
same,relative viability,Neratinib + Phenformin; first compound 0.1 µM,0.509
same,relative viability,Neratinib + Phenformin; first compound 0.3162 µM,0.337
same,relative viability,Neratinib + Phenformin; first compound 1 µM,0.236
NCI-H2342,relative viability,Neratinib; 0.01 µM,0.949
same,relative viability,Neratinib; 0.03162 µM,1.01
same,relative viability,Neratinib; 0.1 µM,0.765
same,relative viability,Neratinib; 0.3162 µM,0.582
same,relative viability,Neratinib; 1 µM,0.66
same,relative viability,Neratinib + Trametinib; first compound 0.01 µM,0.772
same,relative viability,Neratinib + Trametinib; first compound 0.03162 µM,0.772
same,relative viability,Neratinib + Trametinib; first compound 0.1 µM,0.71
same,relative viability,Neratinib + Trametinib; first compound 0.3162 µM,0.667
same,relative viability,Neratinib + Trametinib; first compound 1 µM,0.543
same,relative viability,Neratinib + Palbociclib; first compound 0.01 µM,0.52
same,relative viability,Neratinib + Palbociclib; first compound 0.03162 µM,0.493
same,relative viability,Neratinib + Palbociclib; first compound 0.1 µM,0.534
same,relative viability,Neratinib + Palbociclib; first compound 1 µM,0.454
same,relative viability,Neratinib + Luminespib; first compound 0.01 µM,0.72
same,relative viability,Neratinib + Luminespib; first compound 0.03162 µM,0.717
same,relative viability,Neratinib + Luminespib; first compound 0.1 µM,0.712
same,relative viability,Neratinib + Luminespib; first compound 0.3162 µM,0.621
same,relative viability,Neratinib + Foretinib; first compound 0.01 µM,1.08
same,relative viability,Neratinib + Foretinib; first compound 0.03162 µM,0.993
same,relative viability,Neratinib + Foretinib; first compound 0.1 µM,0.891
same,relative viability,Neratinib + Foretinib; first compound 0.3162 µM,0.703
same,relative viability,Neratinib + Foretinib; first compound 1 µM,0.525
same,relative viability,Neratinib + OSI-027; first compound 0.01 µM,0.73
same,relative viability,Neratinib + OSI-027; first compound 0.03162 µM,0.63
same,relative viability,Neratinib + OSI-027; first compound 0.1 µM,0.528
same,relative viability,Neratinib + OSI-027; first compound 0.3162 µM,0.464
same,relative viability,Neratinib + OSI-027; first compound 1 µM,0.462
same,relative viability,Neratinib + Tozasertib; first compound 0.01 µM,0.414
same,relative viability,Neratinib + Tozasertib; first compound 0.03162 µM,0.52
same,relative viability,Neratinib + Tozasertib; first compound 0.1 µM,0.441
same,relative viability,Neratinib + Tozasertib; first compound 0.3162 µM,0.455
same,relative viability,Neratinib + Tozasertib; first compound 1 µM,0.358
same,relative viability,Neratinib + Dasatinib; first compound 0.01 µM,0.326
same,relative viability,Neratinib + Dasatinib; first compound 0.03162 µM,0.318
same,relative viability,Neratinib + Dasatinib; first compound 0.1 µM,0.285
same,relative viability,Neratinib + Dasatinib; first compound 0.3162 µM,0.26
same,relative viability,Neratinib + Dasatinib; first compound 1 µM,0.318
same,relative viability,Neratinib + Phenformin; first compound 0.01 µM,0.662
same,relative viability,Neratinib + Phenformin; first compound 0.03162 µM,0.688
same,relative viability,Neratinib + Phenformin; first compound 0.1 µM,0.517
same,relative viability,Neratinib + Phenformin; first compound 0.3162 µM,0.351
same,relative viability,Neratinib + Phenformin; first compound 1 µM,0.403
same,relative viability,Neratinib + AZD7762; first compound 0.01 µM,0.519
same,relative viability,Neratinib + AZD7762; first compound 0.03162 µM,0.499
same,relative viability,Neratinib + AZD7762; first compound 0.1 µM,0.408
same,relative viability,Neratinib + AZD7762; first compound 0.3162 µM,0.267
same,relative viability,Neratinib + AZD7762; first compound 1 µM,0.379
same,relative viability,Neratinib + Pemetrexed; first compound 0.01 µM,0.722
same,relative viability,Neratinib + Pemetrexed; first compound 0.03162 µM,0.774
same,relative viability,Neratinib + Pemetrexed; first compound 0.1 µM,0.714
same,relative viability,Neratinib + Pemetrexed; first compound 0.3162 µM,0.564
same,relative viability,Neratinib + Pemetrexed; first compound 1 µM,0.497
same,relative viability,Neratinib + Decitabine; first compound 0.03162 µM,0.829
same,relative viability,Neratinib + Decitabine; first compound 0.1 µM,0.743
same,relative viability,Neratinib + Decitabine; first compound 0.3162 µM,0.558
same,relative viability,Neratinib + Decitabine; first compound 1 µM,0.649
same,relative viability,Neratinib + Vorinostat; first compound 0.01 µM,0.797
same,relative viability,Neratinib + Vorinostat; first compound 0.03162 µM,0.88
same,relative viability,Neratinib + Vorinostat; first compound 0.1 µM,0.647
same,relative viability,Neratinib + Vorinostat; first compound 0.3162 µM,0.585
same,relative viability,Neratinib + Vorinostat; first compound 1 µM,0.54
same,relative viability,Neratinib + Olaparib; first compound 0.01 µM,0.397
same,relative viability,Neratinib + Olaparib; first compound 0.03162 µM,0.416
same,relative viability,Neratinib + Olaparib; first compound 0.1 µM,0.385
same,relative viability,Neratinib + Olaparib; first compound 0.3162 µM,0.331
same,relative viability,Neratinib + Olaparib; first compound 1 µM,0.298
